Laboratory results: US10633389B2, “CARM1 inhibitors and uses thereof” (Epizyme, Inc., priority 2013, dated 2020)

What was measured:
[1] = tested on: asymmetric di-methyl PABP1 in RKO cells; assay: RKO methylation assay, In Cell Western (ICW) for asymmetric di-methyl PABP1; assay type: cell-based; settings: Homo sapiens, RKO, Cellular potencies, ICW PABP1me2a
Procedure, shortened: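 In-cell Western on fixed RKO cells after 48 h compound exposure: anti-asymmetric di-methyl PABP1 signal at 800 nm over DRAQ5 DNA signal at 700 nm. Percent inhibition set between DMSO wells and wells with 20 μM reference compound; IC50 curves fitted in triplicate.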

[2] = tested on: NCI-H929 cells; assay: Human myeloma cell line 14-day proliferation assay, NCI-H929; assay type: cell-based; settings: NCI-H929 Human Multiple Myeloma cell line, varying doses, 14-day proliferation assay (FIG. 1A)
Method: (§1) FIGS. 1A and 1B show cell proliferation in response to the presence of compounds of the current invention. Human Multiple Myeloma cell lines NCI-H929 (FIG. 1A) and U266B1 (FIG. 1B) were treated with varying doses of 304-1a (medium grey data points), 23-3 (light grey data points), and 113-3 (black data points) in a 14-day proliferation assay. At the end of the experiment, total cell number was determined for each cell line for different doses of 304-1a, 23-3, and 113-3.
as §1, with “Human” for “FIGS. 1A and 1B show cell proliferation in response to the presence of compounds of the current invention. Human”

[3] = tested on: U266B1 cells; assay: Human myeloma cell line 14-day proliferation assay, U266B1; assay type: cell-based; settings: U266B1 Human Multiple Myeloma cell line, varying doses, 14-day proliferation assay (FIG. 1B)
Method: as §1
as §1, with “Human” for “FIGS. 1A and 1B show cell proliferation in response to the presence of compounds of the current invention. Human”

[4] = target: human CARM1 (PRMT4) (Homo sapiens (Human), UniProt Q86X55); assay: CARM1 enzyme assay on peptide substrate (3H-SAM Flashplate); settings: Biochemical potencies, read-out: Biochem IC50
Chain of human CARM1 (PRMT4) (Q86X55 other isoform, or with tags, fused parts or gaps isoform Q86X55-1): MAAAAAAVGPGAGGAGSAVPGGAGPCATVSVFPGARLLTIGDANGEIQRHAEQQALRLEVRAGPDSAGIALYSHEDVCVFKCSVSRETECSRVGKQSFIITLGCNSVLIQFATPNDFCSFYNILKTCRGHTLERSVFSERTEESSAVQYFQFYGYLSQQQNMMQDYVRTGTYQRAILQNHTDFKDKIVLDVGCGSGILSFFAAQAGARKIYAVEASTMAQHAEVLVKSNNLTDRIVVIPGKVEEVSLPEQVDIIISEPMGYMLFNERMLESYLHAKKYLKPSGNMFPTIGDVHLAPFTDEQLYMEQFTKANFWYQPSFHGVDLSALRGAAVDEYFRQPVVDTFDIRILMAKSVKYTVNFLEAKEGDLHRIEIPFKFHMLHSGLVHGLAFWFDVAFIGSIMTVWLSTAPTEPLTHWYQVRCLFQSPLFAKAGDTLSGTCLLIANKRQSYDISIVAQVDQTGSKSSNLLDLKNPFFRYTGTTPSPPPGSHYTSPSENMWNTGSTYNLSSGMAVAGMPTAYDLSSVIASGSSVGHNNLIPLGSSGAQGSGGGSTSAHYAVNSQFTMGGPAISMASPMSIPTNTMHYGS

Row | IC50 [1] [µM] | IC50 [4] [µM] | SMILES | cell proliferation (total cell number) [2] | cell proliferation (total cell number) [3]
1 | ≥ 20 | 0.1 to 1 | CNCC(O)COc1cccc(-c2nc(N[C@@H]3CC[C@H](C(=O)NC)C3)c(C)c(N3CCOCC3)n2)c1 (stereo partly drawn) [Example 680-1a] | – | –
2 | ≥ 20 | 1 to 3 | CNCC(O)COc1cccc(-c2nc(N[C@@H]3CC[C@H](C(=O)N4CCOCC4)C3)c(C)c(N3CCOCC3)n2)c1 (stereo partly drawn) [Example 681-1a] | – | –
3 | ≥ 20 | 0.1 to 1 | CNCC(O)COc1cccc(-c2nc(NC3CCCC3)c(C)c(N3CCOCC3)n2)c1 (stereo not drawn) [Example 683-1a] | – | –
4 | ≥ 20 | 1 to 3 | CNCC(O)COc1cccc(-c2nc(NC3(C)CCOCC3)cc(N3CCOCC3)n2)c1 (stereo not drawn) [Example 684-1a] | – | –
5 | ≥ 20 | 1 to 3 | CNCC(O)COc1cccc(-c2nc(NCCCN3CCCCCC3=O)cc(N3CCOCC3)n2)c1 (stereo not drawn) [Example 685-1a] | – | –
6 | ≥ 20 | 0.1 to 1 | CNC[C@@H](O)COc1cccc(-c2nc(NCC3CCOCC3)cc(-c3cn(S(C)(=O)=O)c4ncncc34)n2)c1 [Example 686-1a] | – | –
7 | ≥ 20 | 0.1 to 1 | CNCC(O)COc1cccc(-c2nc(N[C@@H]3CC[C@H](O)C3)c(C)c(N3CCOCC3)n2)c1 (stereo partly drawn) [Example 687-1a] | – | –

Second part, the compound before the results:

Row | SMILES | IC50 [1] [µM] | IC50 [4] [µM] | cell proliferation (total cell number) [2] | cell proliferation (total cell number) [3]
8 | CCOC(=O)N1CCOC[C@@H]1CNc1nc(-c2cc(OC[C@H](O)CNC)ccc2Cl)nc(-c2c(C)noc2C)c1C [Example 23-3] | < 5 | – | decreased the proliferation | decreased the proliferation
9 | CNC[C@@H](O)COc1ccc(Cl)c(-c2nc(-c3c(C)noc3C)c(C)c(N3Cc4cccnc4C3)n2)c1 [Example 113-3] | < 5 | – | decreased the proliferation | decreased the proliferation
10 | CNC[C@@H](O)COc1ccc(Cl)c(-c2nc(NC3CCN(C(=O)OC)CC3)c(Cl)c(-c3c(C)noc3C)n2)c1 [Example 304-1a] | < 5 | – | decreased the proliferation | decreased the proliferation
11 | CNCC(O)COc1cccc(-c2nc(-c3ccncc3)cc(N(C)C3CCN(C)CC3)n2)c1 (stereo not drawn) [Example 674-1a] | ≥ 20 | 0.1 to 1 | – | –
12 | CNCC(O)COc1cccc(-c2nc(NC3CCOCC3)cc(-c3c(C)nn(C)c3C)n2)c1 (stereo not drawn) [Example 675-1a] | ≥ 20 | 0.1 to 1 | – | –
13 | CCNc1nc(-c2cccc(OCC(O)CNC)c2)nc(NC2CCOCC2)c1C (stereo not drawn) [Example 676-1a] | ≥ 20 | 1 to 3 | – | –
14 | CNCC(O)COc1cccc(-c2nc(NC3CCOCC3)c(C)c(-c3c(C)nn(C)c3C)n2)c1 (stereo not drawn) [Example 678-1a] | ≥ 20 | 0.1 to 1 | – | –
15 | CNCC(O)COc1cccc(-c2nc(N[C@@H]3CC[C@@H](O)C3)c(C)c(N3CCOCC3)n2)c1 (stereo partly drawn) [Example 679-1a] | ≥ 20 | 1 to 3 | – | –
